The source of these data is EP4596566A1, “COMPOUND PRODUCTION METHOD” (The University of Tokyo, priority 2022, dated 2024).

*1 amine or outer side, *2 acyl side, *3 side chain or, on linkers, in order; H or OH if unused. Where a SMILES comes first, the peptide text is derived from it. Bridges are numbered along the chain shown (N, C = ends). [ ]: non-standard residue; d: D form. The star is where a group is joined. X2 = C=C(N[*:2])c1nc(-c2nc(-c3nc(C(=O)NCCC(=O)NCCOCCOCCCCCCCl)cs3)ccc2C(=O)[*:1])cs1; X1 = C=C(N[*:2])c1nc(-c2nc(-c3nc(C(=O)OC)cs3)ccc2C(=O)[*:1])cs1; Nle = CCCC[C@H](N)C(=O)O; Dhb = C/C=C(\N)C(=O)O; Cam = NC(=O)C*

The subject of data set [1] is NFkB reporter gene activity. The data set can be described thus: NFkB reporter gene assay in THP1-XBlue stable cell line. The data set is classed as cell-based. The settings on record: read-out: inhibition (IC50) of NFkB reporter gene activity.
The target in the next data set is T1, IRAK4 (Homo sapiens, UniProt Q9NWZ3).
T1 sequence (Q9NWZ3 1-460): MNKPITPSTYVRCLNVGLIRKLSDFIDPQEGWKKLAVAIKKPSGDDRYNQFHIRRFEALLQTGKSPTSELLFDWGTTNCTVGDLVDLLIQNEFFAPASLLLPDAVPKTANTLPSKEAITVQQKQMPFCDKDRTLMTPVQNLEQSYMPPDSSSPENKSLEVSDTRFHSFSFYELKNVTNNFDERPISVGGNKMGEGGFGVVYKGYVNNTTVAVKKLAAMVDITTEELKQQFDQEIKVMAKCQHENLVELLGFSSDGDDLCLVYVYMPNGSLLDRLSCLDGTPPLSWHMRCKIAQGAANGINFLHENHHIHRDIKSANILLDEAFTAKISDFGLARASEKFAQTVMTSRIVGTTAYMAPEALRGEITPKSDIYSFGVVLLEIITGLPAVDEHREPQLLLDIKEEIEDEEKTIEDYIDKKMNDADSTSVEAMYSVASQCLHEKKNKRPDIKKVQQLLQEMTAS
Put plainly: Surface plasmon resonance (SPR) binding affinity to IRAK4. As for the experimental part: Next, the binding affinity of each of the synthesized thiopeptides (14 types excluding IR1-ct and IR15-ct in Figure 8) to the target IRAK4 and TLR10 was examined using surface plasmon resonance (SPR). […] Next, using an ADP-Glo-based kinase inhibition assay, the IC50 values of 4 types of thiopeptides for IRAK4 excluding IR1-ct and IR15-ct were evaluated.

Data set [2] is described as follows: Metabolic stability in human serum at 37°C, LC/MS. The data set is classed as in vitro ADME. As for the experimental part:
The compounds were incubated with a human serum at 37°C, and the amount of the residual test substance at various points in time was quantified by LC/MS with respect to an internal standard substance. […] Next, it was examined whether or not the half-lives of the compounds were affected by the reactivity of the Dha residue. The Dha residue may be conjugated with various serum thiols.
In addition, the metabolic stability of all of the 14 types of candidate thiopeptides was examined. The compound was incubated with the human serum at 37°C, and the amount of the residual thiopeptide at various points in time was quantified by LC/MS with respect to the internal standard substance. The half-life of the thiopeptide for TLR10 was generally as long as 38.2 hours, and the thiopeptide was stable.

Another data set addresses TNIK (Homo sapiens, UniProt Q9UKE5). Put plainly: Surface plasmon resonance (SPR) binding affinity to TNIK. The settings on record: ATP 1 mM, 15-fold higher than KM. The source says: Surface plasmon resonance (SPR) was used to evaluate the binding affinity of the thiopeptide synthesized in Example 2 to TNIK.

Chain of TNIK (Q9UKE5 whole entry): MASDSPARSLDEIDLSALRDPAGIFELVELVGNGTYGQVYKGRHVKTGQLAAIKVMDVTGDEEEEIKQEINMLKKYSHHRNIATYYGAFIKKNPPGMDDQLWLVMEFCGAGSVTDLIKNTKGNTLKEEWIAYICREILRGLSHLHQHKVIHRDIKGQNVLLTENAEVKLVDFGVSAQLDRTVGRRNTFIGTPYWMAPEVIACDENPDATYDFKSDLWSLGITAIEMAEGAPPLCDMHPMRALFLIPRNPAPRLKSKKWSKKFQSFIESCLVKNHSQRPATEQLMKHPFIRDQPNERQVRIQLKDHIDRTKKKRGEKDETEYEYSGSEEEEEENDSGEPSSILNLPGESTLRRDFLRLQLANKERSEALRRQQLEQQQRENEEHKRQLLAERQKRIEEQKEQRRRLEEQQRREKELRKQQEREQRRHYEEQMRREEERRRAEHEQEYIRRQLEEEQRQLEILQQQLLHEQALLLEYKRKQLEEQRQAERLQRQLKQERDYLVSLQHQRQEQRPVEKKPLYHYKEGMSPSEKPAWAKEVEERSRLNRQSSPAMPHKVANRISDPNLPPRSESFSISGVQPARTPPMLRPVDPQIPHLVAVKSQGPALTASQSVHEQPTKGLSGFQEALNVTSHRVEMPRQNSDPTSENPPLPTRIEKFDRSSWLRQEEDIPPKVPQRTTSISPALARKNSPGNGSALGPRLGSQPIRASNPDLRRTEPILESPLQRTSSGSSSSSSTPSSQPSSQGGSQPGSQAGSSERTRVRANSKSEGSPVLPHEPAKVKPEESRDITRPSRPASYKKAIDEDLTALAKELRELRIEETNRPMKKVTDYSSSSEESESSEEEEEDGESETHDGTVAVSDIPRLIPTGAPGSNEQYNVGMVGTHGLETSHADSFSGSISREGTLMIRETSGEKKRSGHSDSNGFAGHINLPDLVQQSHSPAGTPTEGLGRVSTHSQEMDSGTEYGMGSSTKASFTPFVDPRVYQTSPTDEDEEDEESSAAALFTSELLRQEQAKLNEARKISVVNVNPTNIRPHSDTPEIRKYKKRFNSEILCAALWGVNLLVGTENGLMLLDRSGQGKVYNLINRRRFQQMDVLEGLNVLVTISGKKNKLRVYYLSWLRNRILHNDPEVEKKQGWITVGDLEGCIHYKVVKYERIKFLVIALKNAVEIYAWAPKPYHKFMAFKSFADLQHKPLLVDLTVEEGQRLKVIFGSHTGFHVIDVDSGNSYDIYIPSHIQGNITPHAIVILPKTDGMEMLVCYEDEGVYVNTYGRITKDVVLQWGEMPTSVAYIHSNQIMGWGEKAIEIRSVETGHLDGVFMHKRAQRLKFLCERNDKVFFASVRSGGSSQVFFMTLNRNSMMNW

As for `C=C1NC(=O)[C@H](CCCCN)NC(=O)[C@H](Cc2ccc(O)cc2)NC(=O)[C@H]([C@@H](C)CC)NC(=O)[C@H](CCCNC(=N)N)NC(=O)[C@H](CCCNC(=N)N)NC(=O)[C@H](CCCCN)NC(=O)[C@H](Cc2ccccc2)NC(=O)[C@H](CC(C)C)NC(=O)[C@H](CCSC)NC(=O)[C@H](CO)NC(=O)[C@H](Cc2c[nH]c3ccccc23)NC(=O)c2ccc(-c3nc(C(=O)NCCC(=O)NCCOCCOCCCCCCCl)cs3)nc2-c2csc1n2` [IR1-ct] (WSMLFKRRIYK; linker N-C via X2), the IC50 in data set [1] was found to be 7.8 µM.
In turn, `C=C1NC(=O)[C@H](CCCCN)NC(=O)[C@H](Cc2ccc(O)cc2)NC(=O)[C@H]([C@@H](C)CC)NC(=O)[C@H](CCCNC(=N)N)NC(=O)[C@H](CCCNC(=N)N)NC(=O)[C@H](CCCCN)NC(=O)[C@H](Cc2ccccc2)NC(=O)[C@H](CC(C)C)NC(=O)[C@H](CCSC)NC(=O)[C@H](CO)NC(=O)[C@H](Cc2c[nH]c3ccccc23)NC(=O)c2ccc(-c3nc(C(=O)OC)cs3)nc2-c2csc1n2` [IR1] (WSMLFKRRIYK; linker N-C via X1) yielded a Kd at IRAK4 of 0.0013 µM.
In the case of `C=C1NC(=O)/C(=C/C)NC(=O)[C@H](Cc2c[nH]c3ccccc23)NC(=O)[C@H](Cc2c[nH]cn2)NC(=O)[C@H](Cc2c[nH]c3ccccc23)NC(=O)[C@H]([C@@H](C)O)NC(=O)[C@H]([C@@H](C)CC)NC(=O)[C@H](Cc2ccccc2)NC(=O)[C@H](CCC(N)=O)NC(=O)[C@H](CCCNC(=N)N)NC(=O)[C@H](CCCCN)NC(=O)[C@H](CCCC)NC(=O)[C@H](CO)NC(=O)[C@H](Cc2c[nH]c3ccccc23)NC(=O)c2ccc(-c3nc(C(=O)NCCC(=O)NCCOCCOCCCCCCCl)cs3)nc2-c2csc1n2` [IR15-ct] (WS[Nle]KRQFITWHW[Dhb]; linker N-C via X2), the half-maximal inhibitory concentration (IC50) in data set [1] was 7 µM.
As for `C=C1NC(=O)[C@H](CO)NC(=O)[C@H](CSCC(N)=O)NC(=O)CNC(=O)[C@H](Cc2ccc(O)cc2)NC(=O)[C@H](C)NC(=O)[C@H](CO)NC(=O)[C@H](CC(=O)O)NC(=O)CNC(=O)[C@H](CC(C)C)NC(=O)[C@H](Cc2c[nH]c3ccccc23)NC(=O)[C@H](Cc2c[nH]c3ccccc23)NC(=O)c2ccc(-c3nc(C(=O)OC)cs3)nc2-c2csc1n2` [TP4] (WWLGDSAYGC(Cam)S; linker N-C via X1), the “half-life (τ1/2) in human serum” value in data set [2] was determined as 88 h.
Consider `C=C1NC(=O)CNC(=O)[C@H](CC(N)=O)NC(=O)[C@H](CC(C)C)NC(=O)CNC(=O)[C@H](CCCCN)NC(=O)[C@H](C)NC(=O)[C@H]([C@@H](C)CC)NC(=O)[C@H](CO)NC(=O)[C@H](Cc2c[nH]c3ccccc23)NC(=O)[C@H](C)NC(=O)[C@H](Cc2c[nH]c3ccccc23)NC(=O)c2ccc(-c3nc(C(=O)OC)cs3)nc2-c2csc1n2` [TP8] (WAWSIAKGLNG; linker N-C via X1), for which the “binding to TNIK in the presence of the saturated concentration of ATP” value on TNIK is given as “bonded to TNIK”. Besides, in data set [2], the “half-life (τ1/2) in human serum” value amounted to 14 h.
